In US12466822B2, “Heterocyclic compounds as immunomodulators” (Incyte Corporation, priority 2016, dated 2025):

The compounds below were run against T1, PD-1/PD-L1 protein/protein interaction (recombinant human PD-L1 protein (19-238), recombinant human PD-1 protein (25-167)) (Homo sapiens, UniProt Q9NZQ7) (assay: PD-1/PD-L1 Homogeneous Time-Resolved Fluorescence (HTRF) Binding Assay). Details: 25° C., PBS buffer (pH 7.4), 40 minutes preincubation with inhibitors.
T1 construct: Recombinant human PD-L1 protein (19-238) with a His-tag at the C-terminus; purchased AcroBiosystems PD1-H5229 (PD-L1-His); PD1-H5257 (PD-1-Fc)
T1 sequence (Q9NZQ7 19-238): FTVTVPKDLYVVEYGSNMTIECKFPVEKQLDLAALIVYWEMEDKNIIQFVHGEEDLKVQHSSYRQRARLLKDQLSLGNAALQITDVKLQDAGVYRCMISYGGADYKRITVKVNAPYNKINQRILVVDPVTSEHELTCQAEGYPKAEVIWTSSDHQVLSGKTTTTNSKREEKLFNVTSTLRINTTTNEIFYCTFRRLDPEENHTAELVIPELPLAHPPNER
Outline: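 Fc-tagged human PD-1 (25-167) and His-tagged PD-L1 (19-238), listed as […] and 10 nM final, preincubated 40 min with inhibitors in PBS pH 7.4, 0.05% Tween-20, 0.1% BSA, 1% DMSO, 25 °C. Eu anti-IgG/APC anti-His added, 60 min, 665/620 nm HTRF ratio; IC50 fitted from percent control activity.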
With `CCN(C)CC(=O)N1Cc2nc(-c3cccc(-c4cccc(Nc5nccc6cc(CN7CC[C@@H](C(=O)O)C7)cnc56)c4Cl)c3C)sc2C1` [Example 90, (R)-1-((8-((2-chloro-3′-(5-(N-ethyl-N-methylglycyl)-5,6-dihydro-4H-pyrrolo[3,4-d]thiazol-2-yl)-2′-methyl-[1,1′-biphenyl]-3-yl)amino)-1,7-naphthyridin-3-yl)methyl)pyrrolidine-3-carboxylic acid] the IC50 was ≤ 10 nM. `Cc1c(-c2nc3c(s2)CN(C(=O)CN(C)C)C3)cccc1-c1cccc(Nc2nccc3cc(CN4CC[C@H](CC(=O)O)C4)cnc23)c1Cl` [Example 91, (R)-2-(1-((8-((2-chloro-3′-(5-(dimethylglycyl)-5,6-dihydro-4H-pyrrolo[3,4-d]thiazol-2-yl)-2′-methyl-[1,1′-biphenyl]-3-yl)amino)-1,7-naphthyridin-3-yl)methyl)pyrrolidin-3-yl)acetic acid] was tested, and the IC50 was ≤ 10 nM. With `Cc1c(-c2nc3c(s2)CN(C(=O)CN(C)C)C3)cccc1-c1cccc(Nc2nccc3cc(CN4CC5CC4CC5C(=O)O)cnc23)c1Cl` (stereo not shown) [Example 92, 2-((8-((2-chloro-3′-(5-(dimethylglycyl)-5,6-dihydro-4H-pyrrolo[3,4-d]thiazol-2-yl)-2′-methyl-[1,1′-biphenyl]-3-yl)amino)-1,7-naphthyridin-3-yl)methyl)-2-azabicyclo[2.2.1]heptane-5-carboxylic acid] the IC50 was ≤ 10 nM. With `CCN(C)CC(=O)N1Cc2nc(-c3cccc(-c4cccc(Nc5nccc6cc(CN7CC[C@H](CC(=O)O)C7)cnc56)c4Cl)c3C)sc2C1` [Example 93, (R)-2-(1-((8-(2-chloro-3′-(5-(2-(ethyl(methyl)amino)acetyl)-5,6-dihydro-4H-pyrrolo[3,4-d]thiazol-2-yl)-2′-methylbiphenyl-3-ylamino)-1,7-naphthyridin-3-yl)methyl)pyrrolidin-3-yl)acetic acid] the IC50 was 10 to 100 nM. In the case of `CCN(C)CC(=O)N1Cc2nc(-c3cccc(-c4cccc(Nc5nccc6cc(CN7CC8CC7CC8C(=O)O)cnc56)c4Cl)c3C)sc2C1` (stereo not shown) [Example 94, 2-((8-(2-chloro-3′-(5-(2-(ethyl(methyl)amino)acetyl)-5,6-dihydro-4H-pyrrolo[3,4-d]thiazol-2-yl)-2′-methylbiphenyl-3-ylamino)-1,7-naphthyridin-3-yl)methyl)-2-azabicyclo[2.2.1]heptane-5-carboxylic acid], the IC50 is reported as ≤ 10 nM. With `Cc1c(-c2nc3c(s2)CN(C(=O)CN2CC[C@@H](O)C2)C3)cccc1-c1cccc(Nc2nccc3cc(CN4CC[C@@H](C(=O)O)C4)cnc23)c1Cl` [Example 95, (R)-1-((8-((2-chloro-3′-(5-(2-((R)-3-hydroxypyrrolidin-1-yl)acetyl)-5,6-dihydro-4H-pyrrolo[3,4-d]thiazol-2-yl)-2′-methyl-[1,1′-biphenyl]-3-yl)amino)-1,7-naphthyridin-3-yl)methyl)pyrrolidine-3-carboxylic acid] the IC50 was ≤ 10 nM. With `Cc1c(-c2nc3c(s2)CN(C(=O)CN(C)CCO)C3)cccc1-c1cccc(Nc2nccc3cc(CN4CC[C@@H](C(=O)O)C4)cnc23)c1Cl` [Example 96, (R)-1-((8-((2-chloro-3′-(5-(N-(2-hydroxyethyl)-N-methylglycyl)-5,6-dihydro-4H-pyrrolo[3,4-d]thiazol-2-yl)-2′-methyl-[1,1′-biphenyl]-3-yl)amino)-1,7-naphthyridin-3-yl)methyl)pyrrolidine-3-carboxylic acid] the IC50 was ≤ 10 nM. For `Cc1c(-c2nc3c(s2)CN(C(=O)CN2CC[C@H](O)C2)C3)cccc1-c1cccc(Nc2nccc3cc(CN4CC[C@@H](C(=O)O)C4)cnc23)c1Cl` [Example 97, (R)-1-((8-((2-chloro-3′-(5-(2-((S)-3-hydroxypyrrolidin-1-yl)acetyl)-5,6-dihydro-4H-pyrrolo[3,4-d]thiazol-2-yl)-2′-methyl-[1,1′-biphenyl]-3-yl)amino)-1,7-naphthyridin-3-yl)methyl)pyrrolidine-3-carboxylic acid], the IC50 was ≤ 10 nM. In the case of `Cc1c(-c2nc3c(s2)CN(C(=O)CN2CC(O)C2)C3)cccc1-c1cccc(Nc2nccc3cc(CN4CC[C@@H](C(=O)O)C4)cnc23)c1Cl` [Example 98, (R)-1-((8-((2-chloro-3′-(5-(2-(3-hydroxyazetidin-1-yl)acetyl)-5,6-dihydro-4H-pyrrolo[3,4-d]thiazol-2-yl)-2′-methyl-[1,1′-biphenyl]-3-yl)amino)-1,7-naphthyridin-3-yl)methyl)pyrrolidine-3-carboxylic acid], the IC50 is reported as ≤ 10 nM. With `Cc1c(NC(=O)c2nc3c(n2C)CCN(C[C@H]2CC[C@@H](C(=O)O)CC2)C3)cccc1-c1cccc(Nc2nccc3cc(CN4CC[C@@H](O)C4)cnc23)c1C` [Example 99, Cis-4-((2-(3′-(3-(((R)-3-hydroxypyrrolidin-1-yl)methyl)-1,7-naphthyridin-8-ylamino)-2,2′-dimethylbiphenyl-3-ylcarbamoyl)-1-methyl-6,7-dihydro-1H-imidazo[4,5-c]pyridin-5(4H)-yl)methyl)cyclohexanecarboxylic acid] the IC50 was ≤ 10 nM.
